Molecular target: T1, Leishmania major pteridine reductase 1 (LmPTR1) (Leishmania major, UniProt Q01782)
T1 construct: made in house
T1 sequence (Q01782 1-288): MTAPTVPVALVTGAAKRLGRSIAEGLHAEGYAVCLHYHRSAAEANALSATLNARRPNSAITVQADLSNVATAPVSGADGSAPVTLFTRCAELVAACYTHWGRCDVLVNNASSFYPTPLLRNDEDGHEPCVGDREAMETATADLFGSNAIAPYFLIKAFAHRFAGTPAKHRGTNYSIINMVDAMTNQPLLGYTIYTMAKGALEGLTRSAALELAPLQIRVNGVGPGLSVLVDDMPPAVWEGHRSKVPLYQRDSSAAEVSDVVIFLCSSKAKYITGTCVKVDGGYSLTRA
Test: LmPTR1 enzyme reporter assay (cytochrome-c reduction, 550 nm)
Assay type: biochemical
Conditions: for IC50: compounds 1–3, SD agreed to ±10%; for inhibition at 50 µM: read-out: % Inhibition LmPTR1 (50 μM)
Experimental: TbPTR1 and LmPTR1 were purified as reported in literature. The enzyme kinetic profile of each selected protein was characterized by a spectrophotometric assay. The experimental assay consists of enzyme kinetic reaction monitoring at 340 nm for a total time of 180 s. The enzyme kinetic activity was measured at steady-state concentration of 7,8-dihydro-L-biopterin (H2B) and NADPH substrates equal to 50 and 120 µM and varying the enzyme concentration in the 0.001–0.006 µM and 0.005–0.010–0.015–0.020–0.025–0.030 µM range for Lm- and TbPTR1, respectively. The resulting kcat values were equal to 0.68 (s^−1) and 7.2 (s^−1) for Tb- and LmPTR1, respectively. For both TbPTR1 and LmPTR1, the Km value evaluation assay for H2B- and NADPH-substrates was performed in the 0.3-0.6–0.9–1.2–2.4–4.8 µM and 3.0–6.0–12.0–40.0–90.0–190.0 µM concentrations range, respectively.
Compounds 1A–3A were evaluated as reported in our previous paper. The novel synthesized compounds 1–3 were tested towards TbPTR1 and LmPTR1 using the in vitro TbPTR1/LmPTR1 enzyme reporter assay. The experimental procedure consists of monitoring the non-enzymatic reduction reaction of cytochrome-c at 550 nm, related to the reduction reaction of H2B to tetrahydrobiopterin (H4B) by using NADPH as the cofactor. TbPTR1 and LmPTR1 enzyme activity was assayed in a buffer containing 20 mM sodium citrate (pH 6.0) in a final experimental volume equal to 600 µL. The final reaction mixture contained different substrates added in the following order: TbPTR1/LmPTR1 (0.018 µM/0.002 µM) in 20 mM Tris-HCl, glycerol 10% (v/v), pH 7.5; H2B at a final concentration equal to 0.3 µM; cytochrome-c (80 µM); Milli-Q water to a final volume of 600 µL and NADPH to a final concentration of 500 µM. Before the addition of NADPH, the reaction mixture was incubated for 10 min at 30 °C and 80 RPM. To allow the starting of the reaction, NADPH was added and the enzyme reaction was detected for a total time of 10 min at 30 °C, 550 nm. The inhibition profile characterization of compounds 1–3 was performed with a DU-640 spectrophotometer (Beckman Coulter, Brea, CA, USA). Each compound was assayed in duplicate against Tb/LmPTR1 target enzymes in the 0–10–25–50–80–150 µM concentrations range. At the different concentration values, the compounds were added to the reaction mixture (enzyme, H2B, cytochrome-c in 20 mM sodium citrate buffer and Milli-Q water) and incubated for 10 min at 30 °C, 80 RPM. The reaction was initiated by the addition of NADPH (500 µM) and monitored for 10 min at 30 °C, 550 nm. The absorbance values were processed by software analysis and transformed into the corresponding slopes. The percentages of inhibition and the IC50 values were determined.

Row | SMILES | IC50 [µM] | inhibition at 50 µM [%]
1 | O=C1CC(c2cccc(O)c2)Oc2ccc(O)cc21 (stereo not drawn) [Compound 1] | 57 | 50.4
2 | O=C1CC(c2ccc(O)c(O)c2)Oc2ccc(O)cc21 (stereo not drawn) [Compound 3] | 36 | 69
3 | O=C1CC(c2ccc(O)cc2)Oc2ccc(O)cc21 (stereo not drawn) [Compound 2] | 35 | 56

Reference: PMC6155272, “Chroman-4-One Derivatives Targeting Pteridine Reductase 1 and Showing Anti-Parasitic Activity” (Molecules : A Journal of Synthetic Chemistry and Natural …, 2017)
